Data on 8 compounds can be found in BindingDB's records for doi:10.1021/jm010469k (Agouron Pharmaceuticals, 2002).

Experiment [1] is described as follows: antirhinoviral activity against HRV Protease 3CP (serotype 1A).
The nature of experiment [2]: antirhinoviral activity against HRV Protease 3CP (serotype 10).
Experiment [3] is described as follows: antirhinoviral activity against HRV Protease 3CP (serotype 14).
Experiment [4] in a line: antirhinoviral activity against HRV Protease 3CP (serotype 39).
The nature of experiment [5]: antirhinoviral activity against HRV Protease 3CP (serotype 23).
Experiment [6] in a line: antirhinoviral activity against HRV Protease 3CP (serotype 10). This is another data set of the same source.
Experiment [7] in a line: antirhinoviral activity against HRV Protease 3CP (serotype Hanks).
Experiment [8] in a line: antirhinoviral activity against HRV Protease 3CP (serotype 2).
The nature of experiment [9]: antirhinoviral activity against HRV Protease 3CP (serotype 1A). This is another data set of the same source.
Experiment [10] can be described thus: antirhinoviral activity against HRV Protease 3CP (serotype 3).
The nature of experiment [11]: antirhinoviral activity against HRV Protease 3CP (serotype 13).
Experiment [12] can be described thus: antirhinoviral activity against HRV Protease 3CP (serotype 9).
Experiment [13] in a line: antirhinoviral activity against HRV Protease 3CP (serotype 11).
Experiment [14] in a line: antirhinoviral activity against HRV Protease 3CP (serotype 25).
A short description of experiment [15]: antirhinoviral activity against HRV Protease 3CP (serotype 19).
A short description of experiment [16]: antirhinoviral activity against HRV Protease 3CP (serotype 78).
Experiment [17] can be described thus: antirhinoviral activity against HRV Protease 3CP (serotype 16).
Experiment [18] is described as follows: antirhinoviral activity against Human Rhinovirus Protease 3C (serotype 1A).
Experiment [19] in a line: antirhinoviral activity against Human Rhinovirus Protease 3C (serotype 14).
A short description of experiment [20]: antirhinoviral activity against Human Rhinovirus Protease 3C (serotype 10).

One may read the EC50 as the midpoint of the concentration-response curve. Consider `CCOC(=O)/C=C/[C@H](C[C@@H]1CCNC1=O)NC(=O)[C@H](Cc1ccc(F)cc1)n1cccc(NC(=O)c2cc(C)on2)c1=O` [4-(3-(4-Fluoro-phenyl)-2-{3-[(5-methyl-isoxazole-3-carbonyl)-amino]-2-oxo-2H-pyridin-1-yl}-propionylamino)-5-(2-oxo-pyrrolidin-3-yl)-pent-2-enoic acid ethyl ester], for which the EC50 stood at 15 nM in experiment [1] and 4 nM in experiment [2].
For `CCOC(=O)/C=C/[C@H](CCC(N)=O)NC(=O)[C@H](Cc1ccc(F)c(F)c1)n1cccc(NC(=O)OCc2ccccc2)c1=O` [4-[2-(3-Benzyloxycarbonylamino-2-oxo-2H-pyridin-1-yl)-3-(3,4-difluoro-phenyl)-propionylamino]-6-carbamoyl-hex-2-enoic acid ethyl ester], in that order: 513 nM and 32 nM.
In the same order, the values of `CCOC(=O)/C=C/[C@H](CCC(N)=O)NC(=O)[C@H](Cc1ccc(F)cc1)n1cccc(NC(=O)OCc2ccccc2)c1=O` [4-[2-(3-Benzyloxycarbonylamino-2-oxo-2H-pyridin-1-yl)-3-(4-fluoro-phenyl)-propionylamino]-6-carbamoyl-hex-2-enoic acid ethyl ester] are 607 nM and 111 nM.
In experiment [3], `CCOC(=O)/C=C/[C@H](C[C@@H]1CCNC1=O)NC(=O)[C@H](Cc1ccccc1)n1cccc(NC(=O)OCc2ccccc2)c1=O` [4-[2-(3-Benzyloxycarbonylamino-2-oxo-2H-pyridin-1-yl)-3-phenyl-propionylamino]-5-(2-oxo-pyrrolidin-3-yl)-pent-2-enoic acid ethyl ester] gave an EC50 of 3 nM.
With `CCOC(=O)/C=C/[C@H](CCC(N)=O)NC(=O)[C@H](Cc1ccccc1)n1cccc(NC(=O)C2SCCS2)c1=O` [6-Carbamoyl-4-(2-{3-[([1,3]dithiolane-2-carbonyl)-amino]-2-oxo-2H-pyridin-1-yl}-3-phenyl-propionylamino)-hex-2-enoic acid ethyl ester], the EC50 in experiment [1] was 1180 nM; in experiment [2] it was 1410 nM.
In the same order, the values of `CCOC(=O)/C=C/[C@H](C[C@@H]1CCNC1=O)NC(=O)[C@H](Cc1ccc(F)c(F)c1)n1cccc(NC(=O)c2cc(C)on2)c1=O` [(1S,5S)-4-((S)-3-(3,4-Difluoro-phenyl)-2-{3-[(5-methyl-isoxazole-3-carbonyl)-amino]-2-oxo-2H-pyridin-1-yl}-propionylamino)-5-(2-oxo-pyrrolidin-3-yl)-pent-2-enoic acid ethyl ester] are 6 nM and 5 nM.
`Cc1cc(C(=O)Nc2cccn([C@@H](Cc3ccc(F)c(F)c3)C(=O)N[C@H](/C=C/C(=O)OC(C)C)C[C@@H]3CCNC3=O)c2=O)no1` [(1S,5S)-4-((S)-3-(3,4-Difluoro-phenyl)-2-{3-[(5-methyl-isoxazole-3-carbonyl)-amino]-2-oxo-2H-pyridin-1-yl}-propionylamino)-5-(2-oxo-pyrrolidin-3-yl)-pent-2-enoic acid isopropyl ester]: the 50% effective concentration (EC50) in experiment [4] turned out to be 44 nM; in experiment [5], 10 nM; in experiment [6], 85 nM; in experiment [7], 3 nM; in experiment [8], 48 nM; in experiment [9], 132 nM. The EC50 in [10] was 33 nM; in experiment [11], 44 nM; in experiment [12] it was 109 nM; in experiment [13], 3 nM; in experiment [14] it was 100 nM; in [3], 3 nM. Besides, the results for the EC50 in experiment [15], in experiment [16] and in [17] were 9 nM, 12 nM and 36 nM, respectively.
For `CCOC(=O)/C=C/[C@H](CCC(N)=O)NC(=O)[C@H](Cc1ccccc1)n1cccc(NC(=O)OCc2ccccc2)c1=O` [(E)-(S)-4-[(S)-2-(3-Benzyloxycarbonylamino-2-oxo-2H-pyridin-1-yl)-3-phenyl-propionylamino]-6-carbamoyl-hex-2-enoic acid ethyl ester], the EC50 in [18] stood at 1250 nM; in experiment [19], 33 nM; in [20], 372 nM.
